Measured values reported in patent publication US8883782B2, “Spiro-tetracyclic ring compounds as beta-secretase modulators and methods of use” (Amgen Inc., priority 2010, dated 2014).
Like-named read-outs stand apart in the source and are kept apart here.

Columns and labels:
[1] = molecular target: Beta Secretase enzyme (BACE) (Homo sapiens, UniProt P56817); assay: In vitro enzymatic BACE FRET (fluorescence resonance energy transfer) assay; type: biochemical
Summary of the method: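 Enzyme activity was measured at pH 4.2 (0.05 M acetate, 10% DMSO final, 100 uM genapol) by cleavage of a 50 nM quenched fluorogenic peptide. After one hour, Tris was added to neutralise the pH and fluorescence was recorded.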

[2] = tested on: Aβ40 in conditioned medium of cells stably expressing Amyloid Precursor Protein (APP); assay: In vitro BACE cell-based assay (Aβ40 in conditioned medium, sandwich ELISA)
Summary of the method: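 Quantification relied on pAb40/6E10 sandwich ELISA with Europium fluorescence counts, and IC50 was fitted versus concentration.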

[3] = average IC50, enzyme assay, read-out: BACE 1 FRET assay
[4] = average IC50, HEK cells, read-out: HEK cell assay
[5] = Homo sapiens, HEK293, average IC50, HEK cells, read-out: HEK cell assay

Beta Secretase enzyme (BACE), sequence (P56817 46-501, species assumed): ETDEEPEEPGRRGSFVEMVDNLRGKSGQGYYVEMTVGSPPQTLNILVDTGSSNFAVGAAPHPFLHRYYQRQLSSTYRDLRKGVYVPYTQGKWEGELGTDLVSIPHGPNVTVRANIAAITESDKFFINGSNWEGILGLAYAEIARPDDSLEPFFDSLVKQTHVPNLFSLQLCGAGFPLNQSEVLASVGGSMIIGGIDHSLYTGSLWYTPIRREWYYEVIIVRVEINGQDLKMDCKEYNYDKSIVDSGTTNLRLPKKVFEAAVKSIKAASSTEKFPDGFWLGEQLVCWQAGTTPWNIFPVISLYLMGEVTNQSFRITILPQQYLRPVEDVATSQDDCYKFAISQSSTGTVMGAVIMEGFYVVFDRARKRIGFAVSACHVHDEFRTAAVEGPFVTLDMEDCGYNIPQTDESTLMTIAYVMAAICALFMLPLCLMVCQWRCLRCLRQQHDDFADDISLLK

Row | IC50 [1, 3] [µM] | IC50 [2, 4] [µM] | IC50 [2, 5] [µM] | SMILES | IC50 ([1]; BACE 1 FRET assay (uM)) [µM] | IC50 ([2]; Homo sapiens, HEK293, read-out: HEK cell assay (uM), average IC50, HEK cells) [µM]
1 | 0.0009 | 0.0094 | – | CC1(C)C[C@@H](c2cnc3c(c2)[C@]2(COC(N)=N2)c2cc(-c4cccc(Cl)c4)ccc2O3)CCO1 [Example 474, (5S)-7-(3-chlorophenyl)-3-((4S)-2,2-dimethyltetrahydro-2H-pyran-4-yl)spiro[chromeno[2,3-b]pyridine-5,4′-[1,3]oxazol]-2′-amine] | – | –
2 | 0.0022 | – | 0.0073 | CC1(C)C[C@H](c2cnc3c(c2)[C@]2(COC(N)=N2)c2cc(-c4cncc(Cl)c4)ccc2O3)CCO1 [Example 475, (5S)-7-(5-chloro-3-pyridinyl)-3-((4R)-2,2-dimethyltetrahydro-2H-pyran-4-yl)spiro[chromeno[2,3-b]pyridine-5,4′-[1,3]oxazol]-2′-amine] | – | –
3 | 0.0013 | 0.0049 | – | CC1(C)C[C@@H](c2cnc3c(c2)[C@]2(COC(N)=N2)c2cc(-c4cncc(Cl)c4)ccc2O3)CCO1 [Example 476, (5S)-7-(5-chloro-3-pyridinyl)-3-((4S)-2,2-dimethyltetrahydro-2H-pyran-4-yl)spiro[chromeno[2,3-b]pyridine-5,4′-[1,3]oxazol]-2′-amine] | – | –
4 | 0.33 | – | 1.2 | NC1=N[C@@]2(CO1)c1cc(-c3cccnc3N3CCC(F)(F)CC3)ccc1Oc1ncc(N3CCC(F)(F)CC3)cc12 [Example 477, (5S)-3-(4,4-difluoro-1-piperidinyl)-7-(2-(4,4-difluoro-1-piperidinyl)-3-pyridinyl)spiro[chromeno[2,3-b]pyridine-5,4′-[1,3]oxazol]-2′-amine] | – | –
5 | 0.0021 | – | 0.0143 | NC1=N[C@@]2(CO1)c1cc(-c3cccnc3F)ccc1Oc1ncc(N3CCC(F)(F)CC3)cc12 [Example 478, (5S)-3-(4,4-difluoro-1-piperidinyl)-7-(2-fluoro-3-pyridinyl)spiro[chromeno[2,3-b]pyridine-5,4′-[1,3]oxazol]-2′-amine] | – | –
6 | 0.0011 | – | 0.0044 | NC1=N[C@@]2(CO1)c1cc(-c3cccnc3F)ccc1Oc1ncc(N3CCC(F)(F)C3)cc12 [Example 479, (5S)-3-(3,3-difluoro-1-pyrrolidinyl)-7-(2-fluoro-3-pyridinyl)spiro[chromeno[2,3-b]pyridine-5,4′-[1,3]oxazol]-2′-amine] | – | –
7 | 0.0025 | – | 0.0094 | CC1(C)CCN(c2cnc3c(c2)[C@]2(COC(N)=N2)c2cc(-c4cccnc4F)ccc2O3)CC1 [Example 480, (5S)-3-(4,4-dimethyl-1-piperidinyl)-7-(2-fluoro-3-pyridinyl)spiro[chromeno[2,3-b]pyridine-5,4′-[1,3]oxazol]-2′-amine] | – | –
8 | 0.0027 | – | 0.0192 | COc1ccc(F)c(-c2ccc3c(c2)[C@@]2(COC(N)=N2)c2cc(N4CCOC(C)(C)C4)cnc2O3)c1 [Example 481, (5S)-3-(2,2-dimethyl-4-morpholinyl)-7-(2-fluoro-5-methoxyphenyl)spiro[chromeno[2,3-b]pyridine-5,4′-[1,3]oxazol]-2′-amine] | – | –
9 | 0.0034 | – | 0.0144 | Cc1ccnc(F)c1-c1ccc2c(c1)[C@@]1(COC(N)=N1)c1cc(N3CCOC(C)(C)C3)cnc1O2 [Example 482, (5S)-3-(2,2-dimethyl-4-morpholinyl)-7-(2-fluoro-4-methyl-3-pyridinyl)spiro[chromeno[2,3-b]pyridine-5,4′-[1,3]oxazol]-2′-amine] | – | –
10 | 0.0034 | – | 0.0223 | CC1(C)CCCN(c2cnc3c(c2)[C@]2(COC(N)=N2)c2cc(-c4cccnc4F)ccc2O3)C1 [Example 483, (5S)-3-(3,3-dimethyl-1-piperidinyl)-7-(2-fluoro-3-pyridinyl)spiro[chromeno[2,3-b]pyridine-5,4′-[1,3]oxazol]-2′-amine] | – | –
11 | 0.175 | – | 0.852 | NC1=N[C@]2(CO1)c1cc(-c3cccnc3F)ccc1Oc1nc(F)ccc12 [Example 485, (5R)-2-fluoro-7-(2-fluoro-3-pyridinyl)spiro[chromeno[2,3-b]pyridine-5,4′-[1,3]oxazol]-2′-amine] | – | –
12 | 0.301 | – | 0.326 | NC1=N[C@]2(CO1)c1cc(-c3cccnc3)ccc1Oc1c2cc(-c2cccnc2)nc1F [Example 486, (5R)-1-fluoro-3,7-di-3-pyridinylspiro[chromeno[2,3-c]pyridine-5,4′-[1,3]oxazol]-2′-amine] | – | –
13 | 3.68 | – | 0.74 | NC1=N[C@@]2(CO1)c1cc(Br)ccc1Oc1c2cc(Cl)nc1F [Example 487, (5S)-7-bromo-3-chloro-1-fluorospiro[chromeno[2,3-c]pyridine-5,4′-[1,3]oxazol]-2′-amine] | – | –
14 | 0.0066 | – | 0.358 | NC1=N[C@@]2(CO1)c1cc(-c3cccnc3F)ccc1Oc1c2cc(Cl)nc1F [Example 488, (5S)-3-chloro-1-fluoro-7-(2-fluoro-3-pyridinyl)spiro[chromeno[2,3-c]pyridine-5,4′-[1,3]oxazol]-2′-amine] | – | –
15 | 8.12 | – | 10 | NC1=N[C@]2(CO1)c1cc(Br)ccc1Oc1c(F)cc(Cl)nc12 [Example 489, (10R)-8-bromo-2-chloro-4-fluorospiro[chromeno[3,2-b]pyridine-10,4′-[1,3]oxazol]-2′-amine] | – | –
16 | 0.007 | – | 0.0226 | COc1nc(-c2cccnc2)cc2c1Oc1ccc(-c3cccnc3)cc1[C@@]21COC(N)=N1 [Example 490, (5S)-1-methoxy-3,7-di-3-pyridinylspiro[chromeno[2,3-c]pyridine-5,4′-[1,3]oxazol]-2′-amine] | – | –
17 | 0.0005 | – | 0.0053 | NC1=N[C@@]2(CO1)c1cc(-c3cccnc3)ccc1Oc1c2cc(-c2cccnc2)nc1F [Example 494, (5S)-1-fluoro-3,7-di-3-pyridinylspiro[chromeno[2,3-c]pyridine-5,4′-[1,3]oxazol]-2′-amine] | – | –
18 | – | – | – | CC(C)(C)/C=C/c1ccc2c(c1)[C@]1(COC(N)=N1)c1cc(-c3cncnc3)c(F)cc1O2 [Example 496, (4R)-7′-((1E)-3,3-dimethyl-1-buten-1-yl)-3′-fluoro-2′-(5-pyrimidinyl)spiro[1,3-oxazole-4,9′-xanthen]-2-amine] | 0.0014 | 0.0311
19 | 0.0025 | – | 0.0372 | CC(C)(C)C#Cc1ccc2c(c1)[C@]1(COC(N)=N1)c1cc(-c3cncnc3)c(F)cc1O2 [Example 497, (4R)-7′-(3,3-dimethyl-1-butyn-1-yl)-3′-fluoro-2′-(5-pyrimidinyl)spiro[1,3-oxazole-4,9′-xanthen]-2-amine] | – | –
20 | 0.0038 | – | 0.0191 | CC1(C#Cc2ccc3c(c2)[C@]2(COC(N)=N2)c2cc(-c4cncnc4)c(F)cc2O3)COC1 [Example 498, (4R)-3′-fluoro-7′-((3-methyl-3-oxetanyl)ethynyl)-2′-(5-pyrimidinyl)spiro[1,3-oxazole-4,9′-xanthen]-2-amine] | – | –
21 | 0.0022 | – | 0.0227 | COc1ccc(Cl)c(-c2ccc3c(c2)[C@@]2(COC(N)=N2)c2cc(C4=CCOCC4)cnc2O3)c1 [Example 499, (5S)-7-(2-chloro-5-methoxyphenyl)-3-(3,6-dihydro-2H-pyran-4-yl)spiro[chromeno[2,3-b]pyridine-5,4′-[1,3]oxazol]-2′-amine] | – | –
22 | 0.0117 | – | 0.0368 | CNC(=O)c1ccc(F)c(-c2ccc3c(c2)[C@@]2(COC(N)=N2)c2cc(C4=CCOCC4)cnc2O3)c1 [Example 500, 3-((5S)-2′-amino-3-(3,6-dihydro-2H-pyran-4-yl)spiro[chromeno[2,3-b]pyridine-5,4′-[1,3]oxazol]-7-yl)-4-fluoro-N-methylbenzamide] | – | –
23 | 0.0022 | – | 0.027 | NC1=N[C@@]2(CO1)c1cc(-c3cc(Cl)ccc3Cl)ccc1Oc1ncc(C3=CCOCC3)cc12 [Example 501, (5S)-7-(2,5-dichlorophenyl)-3-(3,6-dihydro-2H-pyran-4-yl)spiro[chromeno[2,3-b]pyridine-5,4′-[1,3]oxazol]-2′-amine] | – | –
24 | 0.0025 | – | 0.0127 | COc1ccc(OC)c(-c2ccc3c(c2)[C@@]2(COC(N)=N2)c2cc(C4=CCOCC4)cnc2O3)c1 [Example 502, (5S)-3-(3,6-dihydro-2H-pyran-4-yl)-7-(2,5-dimethoxyphenyl)spiro[chromeno[2,3-b]pyridine-5,4′-[1,3]oxazol]-2′-amine] | – | –
25 | 0.0047 | – | 0.0196 | CC(C)(C)COc1ccc2c(c1)[C@@]1(COC(N)=N1)c1cc(C3=CCOCC3)cnc1O2 [Example 503, (5S)-3-(3,6-dihydro-2H-pyran-4-yl)-7-(2,2-dimethylpropoxy)spiro[chromeno[2,3-b]pyridine-5,4′-[1,3]oxazol]-2′-amine] | – | –
26 | 0.0076 | – | 0.0297 | CC(C)(C)COc1ccc2c(c1)[C@@]1(COC(N)=N1)c1cc(C3=CCOC(C)(C)C3)cnc1O2 [Example 504, (5S)-3-(2,2-dimethyl-3,6-dihydro-2H-pyran-4-yl)-7-(2,2-dimethylpropoxy)spiro[chromeno[2,3-b]pyridine-5,4′-[1,3]oxazol]-2′-amine] | – | –
27 | 0.0026 | – | 0.0125 | CC1(C)CC(c2ccc3c(c2)[C@]2(COC(N)=N2)c2cc(-c4cncnc4)c(F)cc2O3)=CCO1 [Example 505, (4R)-7′-(2,2-dimethyl-3,6-dihydro-2H-pyran-4-yl)-3′-fluoro-2′-(5-pyrimidinyl)spiro[1,3-oxazole-4,9′-xanthen]-2-amine] | – | –
28 | 0.0057 | – | 0.0361 | CC(C)(C)COc1ccc2c(c1)[C@@]1(COC(N)=N1)c1cc(C3=CC(C)(C)OCC3)cnc1O2 [Example 506, (5S)-3-(6,6-dimethyl-3,6-dihydro-2H-pyran-4-yl)-7-(2,2-dimethylpropoxy)spiro[chromeno[2,3-b]pyridine-5,4′-[1,3]oxazol]-2′-amine] | – | –

Row | SMILES | IC50 [1, 3] [µM] | IC50 [2, 4] [µM] | IC50 [2, 5] [µM] | IC50 ([1]; BACE 1 FRET assay (uM)) [µM] | IC50 ([2]; Homo sapiens, HEK293, read-out: HEK cell assay (uM), average IC50, HEK cells) [µM]
29 | NC1=N[C@]2(CO1)c1cc(Br)ccc1Oc1nc(F)ccc12 [Example 484, (5R)-7-bromo-2-fluorospiro[chromeno[2,3-b]pyridine-5,4′-[1,3]oxazol]-2′-amine] | 24.6 | – | 10 | – | –
